Results reported in PMC6926478, “Structures of Respiratory Supercomplex I+III2 Reveal Functional and Conformational Crosstalk” (Molecular Cell, 2019).

Molecular target: T1, SC I+III2 (complex I, NADH/FMN site) (Ovis aries, UniProt Z9LRO2FUZ7)
T1 construct: native supercomplex I+III2 from heart mitochondria, LMNG-extracted, amphipol A8-35 stabilised; complex I has 45 subunits, ~1 MDa; with NADH dehydrogenase [ubiquinone] flavoprotein 2, mitochondrial; NADH-ubiquinone oxidoreductase 75 kDa subunit, mitochondrial; NADH dehydrogenase [ubiquinone] iron-sulfur protein 2, mitochondrial; NADH dehydrogenase [ubiquinone] iron-sulfur protein 7, mitochondrial; NADH-ubiquinone oxidoreductase chain 1; Cytochrome b
Assay: cryoEM structure, […] Å focused map of CI peripheral arm
Format: binding
Settings: native cofactor

## Cc1cc2nc3c(=O)[nH]c(=O)nc-3n(C[C@H](O)[C@H](O)[C@H](O)COP(=O)(O)O)c2cc1C [FMN]
  cryoEM structure, 3.8 Å focused map of CI peripheral arm: The FMN, FeS clusters, and heme groups are shown colored by atom
